± gives the standard deviation of the averaged measurements.
Legend:
BLEOMYCIN = compound: Cc1c(N)nc([C@H](CC(N)=O)NC[C@H](N)C(N)=O)nc1C(=O)N[C@H](C(=O)N[C@H](C)[C@@H](O)[C@H](C)C(=O)N[C@H](C(=O)NCCc1nc(-c2nc(C(=O)NCCC[S+](C)C)cs2)cs1)[C@@H](C)O)[C@@H](OC1OC(CO)C(O)C(O)C1OC1OC(CO)C(O)C(OC(N)=O)C1O)c1cnc[nH]1 [BLEOMYCIN]; assay: surviving fraction relative to DMSO-only wells; higher = less growth inhibition; details: exposure time: 5 days
Method in brief: (§1)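 Tumour cell lines were grown to log phase and seeded at 250–500 cells per well in 384-well plates. They were exposed continuously to inhibitors at 0.5, 1, 5, 10, 50, 100, 500 and 1000 nM for five days, beginning 24 hours after seeding. Surviving fraction is CellTiter-Glo luminescence normalised to the median of DMSO-only wells.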

[1] = compound: C[C@@H]1CN(CC(=O)Nc2ccc3c(c2)Cc2cccc(-c4cc(=O)cc(N5CCOCC5)o4)c2S3)C[C@H](C)O1; assay: as above; details: exposure time: 5 days
Method in brief: as §1

Row | Test System | surviving fraction (BLEOMYCIN; 0.5 nM) | surviving fraction (BLEOMYCIN; 1 nM) | surviving fraction (BLEOMYCIN; 5 nM) | surviving fraction (BLEOMYCIN; 10 nM) | surviving fraction (BLEOMYCIN; 50 nM) | surviving fraction (BLEOMYCIN; 100 nM) | surviving fraction (BLEOMYCIN; 500 nM) | surviving fraction (BLEOMYCIN; 1000 nM) | surviving fraction ([1]; 0.5 nM) | surviving fraction ([1]; 1 nM) | surviving fraction ([1]; 5 nM) | surviving fraction ([1]; 10 nM) | surviving fraction ([1]; 50 nM) | surviving fraction ([1]; 100 nM) | surviving fraction ([1]; 500 nM) | surviving fraction ([1]; 1000 nM)
1 | OSHN BONE | 0.9207 ± 0.0087 | 0.916 ± 0.012 | 0.916 ± 0.007 | 0.903 ± 0.024 | 0.925 ± 0.0044 | 0.856 ± 0.07 | 0.29 ± 0.039 | 0.132 ± 0.03 | 1.06 ± 0.017 | 1.06 ± 0.029 | 1.09 ± 0.016 | 1.07 ± 0.025 | 1.017 ± 0.0072 | 1.021 ± 0.0095 | 1.01 ± 0.019 | 0.977 ± 0.0061
2 | SYO1 SYNOVIAL | 0.809 ± 0.058 | 0.778 ± 0.044 | 0.753 ± 0.035 | 0.695 ± 0.029 | 0.45 ± 0.014 | 0.355 ± 0.032 | 0.104 ± 0.019 | 0.0704 ± 0.019 | 0.997 ± 0.021 | 1 ± 0.029 | 0.987 ± 0.049 | 1.07 ± 0.019 | 0.993 ± 0.023 | 1.03 ± 0.018 | 0.894 ± 0.019 | 0.781 ± 0.011
3 | OS25HAL BONE | 0.885 ± 0.027 | 0.8967 ± 0.0078 | 0.924 ± 0.026 | 0.894 ± 0.027 | 0.936 ± 0.011 | 0.895 ± 0.058 | 0.511 ± 0.048 | 0.286 ± 0.004 | 1.02 ± 0.026 | 1.02 ± 0.031 | 1.02 ± 0.022 | 1.02 ± 0.016 | 1.019 ± 0.0078 | 1.01 ± 0.019 | 1.05 ± 0.02 | 1.02 ± 0.018
4 | SG31 HEADNECK | 0.979 ± 0.12 | 0.924 ± 0.018 | 0.767 ± 0.12 | 0.805 ± 0.12 | 0.83 ± 0.046 | 0.733 ± 0.066 | 0.712 ± 0.13 | 0.595 ± 0.065 | 0.946 ± 0.076 | 0.916 ± 0.1 | 1.06 ± 0.17 | 0.953 ± 0.07 | 0.971 ± 0.12 | 0.964 ± 0.09 | 1.08 ± 0.087 | 1.06 ± 0.098
5 | NCIH441 LUNG | 0.956 ± 0.093 | 1.01 ± 0.05 | 0.919 ± 0.045 | 0.887 ± 0.063 | 0.838 ± 0.066 | 0.857 ± 0.015 | 0.762 ± 0.017 | 0.52 ± 0.028 | 1.04 ± 0.092 | 1.03 ± 0.085 | 0.957 ± 0.1 | 1.07 ± 0.062 | 1.11 ± 0.035 | 1.11 ± 0.087 | 1.02 ± 0.056 | 1.14 ± 0.11
6 | HOS BONE | 0.936 ± 0.0079 | 0.926 ± 0.023 | 0.9497 ± 0.0038 | 0.94 ± 0.017 | 1 ± 0.035 | 0.984 ± 0.014 | 0.589 ± 0.043 | 0.291 ± 0.039 | 1.03 ± 0.041 | 1.02 ± 0.032 | 1.06 ± 0.027 | 1.06 ± 0.05 | 1.02 ± 0.039 | 1.01 ± 0.022 | 0.988 ± 0.044 | 0.901 ± 0.048
7 | SAOS2 BONE | 0.8247 ± 0.0029 | 0.805 ± 0.068 | 0.856 ± 0.016 | 0.698 ± 0.11 | 0.968 ± 0.024 | 0.904 ± 0.063 | 0.685 ± 0.034 | 0.462 ± 0.054 | 1.08 ± 0.037 | 1.01 ± 0.018 | 1.07 ± 0.021 | 1.1 ± 0.051 | 0.895 ± 0.057 | 0.977 ± 0.12 | 0.8487 ± 0.0063 | 0.774 ± 0.01
8 | DU4475 BREAST | 0.675 ± 0.13 | 0.792 ± 0.17 | 0.774 ± 0.2 | 0.77 ± 0.075 | 0.742 ± 0.13 | 0.62 ± 0.1 | 0.49 ± 0.11 | 0.378 ± 0.13 | 1.12 ± 0.23 | 1.08 ± 0.011 | 0.951 ± 0.13 | 1.18 ± 0.12 | 0.794 ± 0.22 | 1.12 ± 0.36 | 1.31 ± 0.55 | 1.05 ± 0.23
9 | CAL120 BREAST | 0.901 ± 0.028 | 0.926 ± 0.022 | 0.903 ± 0.013 | 0.9 ± 0.023 | 0.819 ± 0.023 | 0.767 ± 0.021 | 0.546 ± 0.027 | 0.399 ± 0.0084 | 1.01 ± 0.029 | 1.02 ± 0.013 | 1.03 ± 0.02 | 1.04 ± 0.011 | 1.02 ± 0.022 | 1 ± 0.015 | 0.946 ± 0.046 | 0.87 ± 0.018
10 | MDAMB157 BREAST | 0.89 ± 0.033 | 0.915 ± 0.045 | 0.788 ± 0.033 | 0.863 ± 0.025 | 0.815 ± 0.047 | 0.736 ± 0.07 | 0.476 ± 0.016 | 0.288 ± 0.056 | 0.905 ± 0.074 | 0.972 ± 0.025 | 1.01 ± 0.057 | 1.09 ± 0.059 | 1 ± 0.028 | 1.05 ± 0.046 | 0.896 ± 0.022 | 0.89 ± 0.093
11 | SG43 HEADNECK | 1.13 ± 0.058 | 1.08 ± 0.13 | 1.02 ± 0.096 | 0.81 ± 0.18 | 0.583 ± 0.015 | 0.78 ± 0.087 | 0.613 ± 0.17 | 0.391 ± 0.13 | 0.871 ± 0.21 | 1.22 ± 0.069 | 1.03 ± 0.14 | 1.16 ± 0.14 | 1.37 ± 0.25 | 1.38 ± 0.36 | 1.31 ± 0.19 | 1.43 ± 0.061
12 | MDAMB231 BREAST | 0.961 ± 0.017 | 0.958 ± 0.018 | 0.978 ± 0.014 | 0.935 ± 0.019 | 0.887 ± 0.028 | 0.845 ± 0.021 | 0.642 ± 0.029 | 0.504 ± 0.01 | 0.965 ± 0.015 | 0.955 ± 0.016 | 0.993 ± 0.035 | 0.988 ± 0.023 | 0.955 ± 0.016 | 0.981 ± 0.021 | 0.73 ± 0.027 | 0.617 ± 0.025
13 | BT549 BREAST | 0.82 ± 0.091 | 0.818 ± 0.16 | 0.637 ± 0.1 | 0.599 ± 0.11 | 0.421 ± 0.053 | 0.304 ± 0.053 | 0.121 ± 0.011 | 0.122 ± 0.048 | 1.1 ± 0.25 | 0.918 ± 0.16 | 0.996 ± 0.083 | 1.08 ± 0.11 | 0.738 ± 0.14 | 0.741 ± 0.14 | 0.774 ± 0.14 | 0.658 ± 0.27
14 | VP229 BREAST | 0.776 ± 0.093 | 0.759 ± 0.052 | 0.754 ± 0.081 | 0.711 ± 0.072 | 0.915 ± 0.089 | 0.893 ± 0.093 | 0.837 ± 0.08 | 0.665 ± 0.076 | 1.03 ± 0.15 | 1.07 ± 0.05 | 1.09 ± 0.14 | 1.06 ± 0.07 | 0.9067 ± 0.0046 | 0.916 ± 0.14 | 1.11 ± 0.062 | 0.897 ± 0.075
15 | CASKI CERVIX | 0.763 ± 0.063 | 0.767 ± 0.057 | 0.7 ± 0.051 | 0.636 ± 0.088 | 0.691 ± 0.023 | 0.612 ± 0.051 | 0.229 ± 0.018 | 0.141 ± 0.0035 | 0.925 ± 0.041 | 0.982 ± 0.035 | 0.963 ± 0.019 | 0.989 ± 0.07 | 0.91 ± 0.047 | 0.855 ± 0.057 | 0.759 ± 0.04 | 0.625 ± 0.037
16 | BT20 BREAST | 0.766 ± 0.062 | 0.742 ± 0.02 | 0.718 ± 0.045 | 0.768 ± 0.06 | 0.849 ± 0.071 | 0.688 ± 0.14 | 0.48 ± 0.087 | 0.353 ± 0.042 | 1.04 ± 0.052 | 1.13 ± 0.044 | 1.1 ± 0.1 | 1.06 ± 0.081 | 0.843 ± 0.11 | 0.894 ± 0.089 | 0.902 ± 0.076 | 0.741 ± 0.045
17 | MG63 BONE | 0.861 ± 0.018 | 0.876 ± 0.018 | 0.864 ± 0.025 | 0.829 ± 0.018 | 0.831 ± 0.02 | 0.64 ± 0.075 | 0.22 ± 0.035 | 0.132 ± 0.0027 | 1.03 ± 0.032 | 1.03 ± 0.038 | 1.076 ± 0.0081 | 1.1 ± 0.04 | 1.06 ± 0.02 | 1.08 ± 0.028 | 0.971 ± 0.025 | 0.919 ± 0.022
18 | CAL51 BREAST | 0.911 ± 0.036 | 0.893 ± 0.052 | 0.904 ± 0.018 | 0.884 ± 0.014 | 0.729 ± 0.043 | 0.621 ± 0.037 | 0.273 ± 0.016 | 0.17 ± 0.011 | 0.954 ± 0.023 | 0.939 ± 0.028 | 1.02 ± 0.019 | 0.997 ± 0.069 | 1.01 ± 0.028 | 1.02 ± 0.027 | 0.922 ± 0.011 | 0.851 ± 0.026

Reference: the supplement of paper PMC6045584
